Patent publication US8791123B2, “Substituted pyrazolo[1,5-a]pyrimidine compounds as Trk kinase inhibitors” (Array Biopharma, Inc., priority 2009, dated 2014)
Where two headings read alike, the source gives them in different places.

What was measured:
Assay type in all cases: biochemical
[1] = target: TrkA (histidine-tagged recombinant human TrkA, cytoplasmic domain) (Homo sapiens (Human), UniProt P04629); assay: TrkA ELISA Assay
Procedure, shortened: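 His-tagged human TrkA cytoplasmic domain phosphorylated poly(Glu,Ala,Tyr 6:3:1) coated at 0.025 mg/mL, with inhibitors present. Phosphotyrosine was detected with HRP-conjugated PY20 antibody (0.2 μg/mL) and TMB, read as absorbance at 450 nm after phosphoric acid stop.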

[2] = target: GST-tagged human Jak1 kinase domain (Homo sapiens (Human), UniProt P23458); assay: Jak1 Inhibition Assay (Omnia kinase assay); details: Table 2; for IC50: 500 μM ATP
Description: (§1) The assays described in Examples C, D, E and F for the determination of JAK1, JAK2, JAK3 and Tyk2 kinase activity, respectively, utilized the Omnia® Kinase fluorescence peptide substrate-based technology (Invitrogen). […] The reactions were therefore read at excitation 360 nm and emission was measured at 485 nm every 50 seconds for 45 minutes using a PerkinElmer EnVision Multilabel Plate Reader.
(§2) The final buffer conditions for each of the JAK1, JAK2, JAK3 and Tyk2 assays were as follows: 25 mM HEPES, pH 7.4, 10 mM MgCl2, 0.01% Triton X-100 and 1 mM DTT.
(§3) Compounds were prepared at 50× the final concentration in DMSO by conducting 3-fold serial dilutions from a 500-μM or 1000-μM intermediate dilution to give a 10-point dosing curve having a high dose of 10 or 20 μM. Two-μL aliquots of these were transferred to a fresh plate for a ten-fold intermediate dilution with assay buffer. Five-μL aliquots of the diluted compounds were then transferred to 20-μL of assay mixtures described in Examples C, D, E and F for a final concentration of DMSO of 2%. A standard or reference compound was typically included on each assay plate to validate that plate. For each plate, percent of control (POC) values were calculated for each well according to the following equation:
(§4) [formula] • where • Xmax=Average Uninhibited Controls • Xmin=Average Background IC50's were estimated from the POC's using a standard 4-parameter logistic model:
(§5) [formula] • where • A=Minimum Y (Bottom Asymptote) • B=Maximum Y (Top Asymptote) • C=EC50 • D=Slope Factor • X=Compound Concentration (nM) • Y=POC
(§6) The IC50 is defined as the concentration of inhibitor at which the POC equals 50 for the fitted curve.
Compounds of Formula I were screened for their ability to inhibit Jak1 using the general enzyme inhibition assay method, in which the assay mixture contained 500 μM ATP, 8 μM Omnia® Y12 peptide (Catalog # IVGN KPZ3121C; Invitrogen Corporation, Carlsbad, Calif.) and 5 nM Jak1 in a total volume of 20 μL. […] (catalog # IVGN PV4774).

[3] = target: GST-tagged human Jak3 kinase domain (Homo sapiens (Human), UniProt P52333); assay: Jak3 Inhibition Assay (Omnia kinase assay); details: Table 2; for IC50: 500 μM ATP
Description: as §1, §2, §3, §4, §5, §6
Compounds of Formula I were screened for their ability to inhibit Jak3 using the general enzyme inhibition assay method, in which the assay mixture contained 500 μM ATP, 10 μM Omnia® Y7 peptide (Catalog # IVGN KNZ3071C, Invitrogen Corporation, Carlsbad, Calif.) and 1.5 nM Jak3 in a total volume of 20 μL. GST-tagged human Jak3 kinase domain comprising amino acids 781-1124 was purchased from Invitrogen Corporation, Carlsbad, Calif. (catalog # IVGN PV3855).

Human Tyk2 kinase domain = Human Tyk2 kinase domain (Homo sapiens (Human), UniProt P29597); assay: Tyk2 Inhibition Assay (Omnia kinase assay); details: Table 2; for IC50: 500 μM ATP
Description: as §1, §2, §3, §4, §5, §6
Compounds of Formula I were screened for their ability to inhibit Tyk2 using the general enzyme inhibition assay method, in which the assay mixture contained 500 μM ATP, 8 μM Omnia® Y12 peptide (Catalog # IVGN KPZ3121C; Invitrogen Corporation, Carlsbad, Calif.) and 1 nM Tyk2 in a total volume of 20 μL. Human Tyk2 kinase domain, comprising amino acids 886 to 1187 with 10 additional histidine residues (histidine tag) on the carboxy terminus, was expressed and purified from bacculovirus in-house at Array BioPharma Inc. (Boulder, Colo.). The histidine tag was cleaved after purification using standard conditions.

Human Jak2 kinase domain = Human Jak2 kinase domain (Homo sapiens (Human), UniProt O60674); assay: Jak2 Inhibition Assay (Omnia kinase assay); details: for IC50: 500 μM ATP; for inhibition at 1 µM: 1000 nM test compound
[4] = Table 1, ELISA, 500 μM ATP, read-out: TrkA Enzyme IC50
[5] = Table 1, >1000 nM when >50% inhibition not observed at 1000 nM, read-out: Jak2 Enzyme IC50

Sequence of GST-tagged human Jak1 kinase domain (P23458 866-1154): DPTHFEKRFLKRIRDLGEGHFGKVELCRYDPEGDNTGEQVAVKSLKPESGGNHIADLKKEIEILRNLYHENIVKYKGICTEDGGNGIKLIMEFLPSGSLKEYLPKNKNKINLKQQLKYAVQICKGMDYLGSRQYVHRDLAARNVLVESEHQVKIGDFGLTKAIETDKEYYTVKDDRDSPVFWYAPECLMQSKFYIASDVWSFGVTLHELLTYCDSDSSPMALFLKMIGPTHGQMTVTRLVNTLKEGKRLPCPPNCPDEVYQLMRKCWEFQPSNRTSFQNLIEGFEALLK
Sequence of Human Jak2 kinase domain (O60674 808-1132): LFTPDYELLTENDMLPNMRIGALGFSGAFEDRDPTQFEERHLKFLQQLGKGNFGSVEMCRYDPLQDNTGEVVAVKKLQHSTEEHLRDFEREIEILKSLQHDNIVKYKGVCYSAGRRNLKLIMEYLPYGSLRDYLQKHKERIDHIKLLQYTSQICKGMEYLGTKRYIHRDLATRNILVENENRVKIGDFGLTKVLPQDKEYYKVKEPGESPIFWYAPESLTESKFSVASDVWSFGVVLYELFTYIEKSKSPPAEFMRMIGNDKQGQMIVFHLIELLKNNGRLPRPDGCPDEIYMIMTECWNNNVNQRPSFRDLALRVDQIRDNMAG
Sequence of TrkA (histidine-tagged recombinant human TrkA, cytoplasmic domain) (P04629 440-796): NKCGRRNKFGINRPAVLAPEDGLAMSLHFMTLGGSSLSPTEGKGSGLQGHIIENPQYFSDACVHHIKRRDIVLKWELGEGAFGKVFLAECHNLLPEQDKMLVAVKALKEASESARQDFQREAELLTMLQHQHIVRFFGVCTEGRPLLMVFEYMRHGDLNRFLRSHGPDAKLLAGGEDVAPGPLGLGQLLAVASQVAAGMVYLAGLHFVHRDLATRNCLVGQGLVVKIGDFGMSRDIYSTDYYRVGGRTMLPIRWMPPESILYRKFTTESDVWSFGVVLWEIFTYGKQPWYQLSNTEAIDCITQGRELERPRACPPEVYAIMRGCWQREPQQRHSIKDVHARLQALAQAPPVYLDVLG
Sequence of Human Tyk2 kinase domain (P29597 886-1187): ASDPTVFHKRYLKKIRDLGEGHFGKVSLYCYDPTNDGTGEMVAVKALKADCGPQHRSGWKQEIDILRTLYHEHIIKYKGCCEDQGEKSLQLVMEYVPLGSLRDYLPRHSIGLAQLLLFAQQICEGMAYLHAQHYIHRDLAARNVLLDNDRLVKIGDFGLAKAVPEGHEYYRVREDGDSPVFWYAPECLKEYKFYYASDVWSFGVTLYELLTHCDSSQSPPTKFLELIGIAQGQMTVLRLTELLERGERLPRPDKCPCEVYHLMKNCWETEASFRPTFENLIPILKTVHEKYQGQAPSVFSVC
Sequence of GST-tagged human Jak3 kinase domain (P52333 781-1124): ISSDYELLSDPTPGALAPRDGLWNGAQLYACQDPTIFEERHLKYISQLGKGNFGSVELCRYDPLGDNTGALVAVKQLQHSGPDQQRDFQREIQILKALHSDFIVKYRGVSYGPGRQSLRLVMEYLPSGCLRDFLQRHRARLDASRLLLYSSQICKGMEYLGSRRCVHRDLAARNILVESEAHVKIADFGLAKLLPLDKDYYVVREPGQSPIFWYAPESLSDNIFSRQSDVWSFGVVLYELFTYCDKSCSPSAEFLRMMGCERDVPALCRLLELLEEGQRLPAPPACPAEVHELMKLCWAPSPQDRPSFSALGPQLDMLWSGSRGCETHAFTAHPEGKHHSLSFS

Row | SMILES | IC50 [1, 4] | IC50 ([1]; Table 2, read-out: TrkA IC50) | IC50 [2] | inhibition at 1 µM ([2]; read-out: Jak1 (% inhibition at 1000 nM), 1000 nM test compound) | IC50 [3] | inhibition at 1 µM ([3]; read-out: Jak3 (% inhibition at 1000 nM), 1000 nM test compound) | IC50 (Human Tyk2 kinase domain) | inhibition at 1 µM (Human Tyk2 kinase domain; read-out: Tyk2 (% inhibition at 1000 nM), 1000 nM test compound) | IC50 (Human Jak2 kinase domain; [5]) | IC50 (Human Jak2 kinase domain; Table 2, read-out: Jak2 IC50) | inhibition at 1 µM (Human Jak2 kinase domain; read-out: Jak2 (% inhibition at 1000 nM), Table 2) | inhibition at 1 µM (Human Jak2 kinase domain; read-out: Jak2 Enzyme (% inhibition at 1000 nM), Table 1)
1 | Cc1ncc(F)cc1[C@H]1CCCN1c1ccn2ncc(C(=O)NC3CC3)c2n1 (stereo in doubt) [Example 181, N-cyclopropyl-5-(2-(5-fluoro-2-methylpyridin-3-yl)pyrrolidin-1-yl)pyrazolo[1,5-a]pyrimidine-3-carboxamide] | 0.0171 µM | 0.0298 µM | > 1 µM | 12.8% | > 1 µM | 8.9% | > 1 µM | 10.7% | > 1 µM | > 1 µM | 18.1% | 5.2%
2 | NC(=O)c1cnn2ccc(N3CCC[C@@H]3c3cc(F)ccc3F)nc12 [Example 30, (R)-5-(2-(2,5-difluorophenyl)pyrrolidin-1-yl)pyrazolo[1,5-a]pyrimidine-3-carboxamide] | 0.00195 µM | 0.0019 µM | > 1 µM | – | > 1 µM | – | > 1 µM | – | > 1 µM | > 1 µM | – | –
3 | O=C(NC1CC1)c1cnn2ccc(N3CCC[C@@H]3c3cncc(F)c3)nc12 [Example 52, (R)—N-cyclopropyl-5-(2-(5-fluoropyridin-3-yl)pyrrolidin-1-yl)pyrazolo[1,5-a]pyrimidine-3-carboxamide] | 0.0074 µM | 0.0074 µM | > 1 µM | – | > 1 µM | – | > 1 µM | – | > 1 µM | > 1 µM | – | –
4 | CC1(NC(=O)c2cnn3ccc(N4CCC[C@@H]4c4cncc(F)c4)nc23)CC1 [Example 91, (R)-5-(2-(5-fluoropyridin-3-yl)pyrrolidin-1-yl)-N-(1-methylcyclopropyl)pyrazolo[1,5-a]pyrimidine-3-carboxamide] | 0.0032 µM | 0.0032 µM | > 1 µM | – | > 1 µM | – | > 1 µM | – | > 1 µM | > 1 µM | – | –
5 | CC(C)NC(=O)c1cnn2ccc(N3CCC[C@@H]3c3cncc(F)c3)nc12 [Example 93, (R)-5-(2-(5-fluoropyridin-3-yl)pyrrolidin-1-yl)-N-isopropylpyrazolo[1,5-a]pyrimidine-3-carboxamide] | 0.0051 µM | 0.0051 µM | > 1 µM | – | > 1 µM | – | > 1 µM | – | > 1 µM | > 1 µM | – | –
6 | O=C(NC1(C(F)(F)F)CC1)c1cnn2ccc(N3CCC[C@@H]3c3cncc(F)c3)nc12 [Example 98, (R)-5-(2-(5-fluoropyridin-3-yl)pyrrolidin-1-yl)-N-(1-(trifluoromethyl)cyclopropyl)pyrazolo[1,5-a]pyrimidine-3-carboxamide] | 0.009 µM | 0.009 µM | > 1 µM | – | > 1 µM | – | > 1 µM | – | > 1 µM | > 1 µM | – | –
7 | O=C(NCC1CC1)c1cnn2ccc(N3CCC[C@@H]3c3cncc(F)c3)nc12 [Example 106, (R)-N-(cyclopropylmethyl)-5-(2-(5-fluoropyridin-3-yl)pyrrolidin-1-yl)pyrazolo[1,5-a]pyrimidine-3-carboxamide] | 0.0077 µM | 0.0076 µM | > 1 µM | – | > 1 µM | – | > 1 µM | – | > 1 µM | > 1 µM | – | –
8 | CNC(=O)c1cnn2ccc(N3CCC[C@@H]3c3cncc(F)c3)nc12 [Example 114, (R)-5-(2-(5-fluoropyridin-3-yl)pyrrolidin-1-yl)-N-methylpyrazolo[1,5-a]pyrimidine-3-carboxamide] | 0.0299 µM | 0.0171 µM | > 1 µM | – | > 1 µM | – | > 1 µM | – | > 1 µM | > 1 µM | – | –
9 | COc1ncc(F)cc1[C@H]1CCCN1c1ccn2ncc(C(=O)N[C@H]3CC[C@H](O)CC3)c2n1 [Example 140, 5-((R)-2-(5-fluoro-2-methoxypyridin-3-yl)pyrrolidin-1-yl)-N-((trans)-4-hydroxycyclohexyl)pyrazolo[1,5-a]pyrimidine-3-carboxamide] | – | – | 0.546 µM | – | > 1 µM | – | – | – | – | – | – | –
10 | CC(C)NC(=O)c1cnn2ccc(N3CCC[C@@H]3c3cc(F)cn(C)c3=O)nc12 [Example 227, (R)-5-(2-(5-fluoro-1-methyl-2-oxo-1,2-dihydropyridin-3-yl)pyrrolidin-1-yl)-N-isopropylpyrazolo[1,5-a]pyrimidine-3-carboxamide] | 0.0123 µM | – | – | – | – | – | – | – | 0.446 µM | – | – | –
11 | Cn1cc(F)cc([C@H]2CCCN2c2ccn3ncc(C(=O)NC4CCC4)c3n2)c1=O [Example 230, (R)-N-cyclobutyl-5-(2-(5-fluoro-1-methyl-2-oxo-1,2-dihydropyridin-3-yl)pyrrolidin-1-yl)pyrazolo[1,5-a]pyrimidine-3-carboxamide] | 0.003 µM | – | – | – | – | – | – | – | 0.666 µM | – | – | –

The remaining lines, values ahead:

Row | IC50 [1, 4] | IC50 ([1]; Table 2, read-out: TrkA IC50) | IC50 [2] | inhibition at 1 µM ([2]; read-out: Jak1 (% inhibition at 1000 nM), 1000 nM test compound) | IC50 [3] | inhibition at 1 µM ([3]; read-out: Jak3 (% inhibition at 1000 nM), 1000 nM test compound) | IC50 (Human Tyk2 kinase domain) | inhibition at 1 µM (Human Tyk2 kinase domain; read-out: Tyk2 (% inhibition at 1000 nM), 1000 nM test compound) | IC50 (Human Jak2 kinase domain; [5]) | IC50 (Human Jak2 kinase domain; Table 2, read-out: Jak2 IC50) | inhibition at 1 µM (Human Jak2 kinase domain; read-out: Jak2 (% inhibition at 1000 nM), Table 2) | inhibition at 1 µM (Human Jak2 kinase domain; read-out: Jak2 Enzyme (% inhibition at 1000 nM), Table 1) | SMILES
12 | 0.0087 µM | – | – | – | – | – | – | – | > 1 µM | – | – | – | Cn1cc(F)cc([C@H]2CCCN2c2ccn3ncc(C(=O)Nc4cccnc4)c3n2)c1=O [Example 231, (R)-5-(2-(5-fluoro-1-methyl-2-oxo-1,2-dihydropyridin-3-yl)pyrrolidin-1-yl)-N-(pyridin-3-yl)pyrazolo[1,5-a]pyrimidine-3-carboxamide]
13 | 0.0045 µM | – | – | – | – | – | – | – | > 1 µM | – | – | – | Cn1cc(F)cc([C@H]2CCCN2c2ccn3ncc(C(=O)NCC4CC4)c3n2)c1=O [Example 232, (R)-N-(cyclopropylmethyl)-5-(2-(5-fluoro-1-methyl-2-oxo-1,2-dihydropyridin-3-yl)pyrrolidin-1-yl)pyrazolo[1,5-a]pyrimidine-3-carboxamide]
14 | 0.0759 µM | – | – | – | – | – | – | – | > 1 µM | – | – | – | Cn1cc(F)cc([C@H]2CCCN2c2ccn3ncc(C(=O)N[C@H](CO)C(C)(C)C)c3n2)c1=O [Example 233, 5-((R)-2-(5-fluoro-1-methyl-2-oxo-1,2-dihydropyridin-3-yl)pyrrolidin-1-yl)-N-((S)-1-hydroxy-3,3-dimethylbutan-2-yl)pyrazolo[1,5-a]pyrimidine-3-carboxamide]
15 | 0.0107 µM | – | – | – | – | – | – | – | > 1 µM | – | – | – | Cn1cc(F)cc([C@H]2CCCN2c2ccn3ncc(C(=O)N[C@@H]4CCCC[C@H]4O)c3n2)c1=O [Example 234, 5-((R)-2-(5-fluoro-1-methyl-2-oxo-1,2-dihydropyridin-3-yl)pyrrolidin-1-yl)-N-((1R,2R)-2-hydroxycyclohexyl)pyrazolo[1,5-a]pyrimidine-3-carboxamide]
16 | 0.0021 µM | – | – | – | – | – | – | – | 0.616 µM | – | – | – | Cn1cc(F)cc([C@H]2CCCN2c2ccn3ncc(C(=O)NC4(C)CC4)c3n2)c1=O [Example 237, (R)-5-(2-(5-fluoro-1-methyl-2-oxo-1,2-dihydropyridin-3-yl)pyrrolidin-1-yl)-N-(1-methylcyclopropyl)pyrazolo[1,5-a]pyrimidine-3-carboxamide]
17 | 0.0101 µM | – | – | – | – | – | – | – | > 1 µM | – | – | – | Cn1cc(F)cc([C@H]2CCCN2c2ccn3ncc(C(=O)Nc4ccc(F)cn4)c3n2)c1=O [Example 239, (R)-5-(2-(5-fluoro-1-methyl-2-oxo-1,2-dihydropyridin-3-yl)pyrrolidin-1-yl)-N-(5-fluoropyridin-2-yl)pyrazolo[1,5-a]pyrimidine-3-carboxamide]
